In patent US7205382B2, “Peptides, the production and use thereof for binding immunoglobulins” (Fresenius Medical Care Affina GmbH, priority 2000, dated 2007):
Bridge positions count the residues as written; N and C are the ends. Square brackets hold non-standard residues; d marks the D form. Ends that are not written are not given here. cellulose = not defined here; βAla = NCCC(=O)O

How the values were obtained:
Format in all cases: binding
Parameters in all cases: key: No binding of immunoglobulin for the defined peptide variant, detection negative: 0; Binding of immunoglobulin for the defined peptide variant, detection positive: +
[1] = tested on: immunoglobulins in human plasma; assay: Cellulose-immobilized 13-mer peptide variants incubated with human plasma, anti-human IgG-AP detection; conditions: human plasma as sample, diluted 1:10,000 in blocking buffer, 3 h room temperature
Outline: (§1)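 Peptides on cellulose via a (βA)(βA) spacer were blocked in T-TBS (pH 8.0) with 5% saccharose and 4% BSA, then exposed for 3 h at room temperature to IgG-Fc (1 μg/ml), serum diluted 1:10,000, or blocking buffer alone. Bound IgG was detected with AP-anti-human IgG (1.2 μg/ml) and NBT/BCIP colour development.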

serum albumin = assay: Cellulose-immobilized 13-mer peptide variants incubated with serum albumin (negative control), anti-human IgG-AP detection; conditions: blocking buffer without addition, 3 h room temperature
Outline: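 Membrane-bound peptides, spaced by two β-alanines, are probed with 1 μg/ml IgG-Fc or 1:10,000 serum for 3 h at room temperature; blocking buffer alone acts as control. Detection uses anti-human IgG-AP (1.2 μg/ml) and NBT/BCIP.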

human IgG-Fc = assay: Cellulose-immobilized 13-mer peptide variants incubated with human IgG-Fc, anti-human IgG-AP detection; conditions: IgG-Fc 1 μg/ml in blocking buffer, 3 h room temperature
Outline: as §1

Substance	Result for incubation with human plasma (immunoglobulin binding detection) [1]	Result for incubation with serum albumin (immunoglobulin binding detection) (serum albumin)	Result for incubation with human IgG-Fc (immunoglobulin binding detection) (human IgG-Fc)
11M: cellulose-bound 13-mer variant DCAWHLGELVMCT-(βA)(βA)	0	0	0
11D: cellulose-bound 13-mer variant DCAWHLGELVDCT-(βA)(βA) (DCAWHLGELVDCT-{βAla-βAla-cellulose}; disulfide 2-12 (inferred); reading uncertain; also: printed as DCAWHLGELVDCT-(βA)(βA))	0	0	0
09N: cellulose-bound 13-mer variant DCAWHLGENVWCT-(βA)(βA) (DCAWHLGENVWCT-{βAla-βAla-cellulose}; disulfide 2-12 (inferred); reading uncertain; also: printed as DCAWHLGENVWCT-(βA)(βA))	0	0	0
07I: cellulose-bound 13-mer variant DCAWHLIELVWCT-(βA)(βA) (DCAWHLIELVWCT-{βAla-βAla-cellulose}; disulfide 2-12 (inferred); not fully specified (N-terminus); printed as DCAWHLIELVWCT-(βA)(βA); reading uncertain)	0	0	0
06Q: cellulose-bound 13-mer variant DCAWHQGELVWCT-(βA)(βA) (DCAWHQGELVWCT-{βAla-βAla-cellulose}; disulfide 2-12 (inferred); not fully specified (N-terminus); printed as DCAWHQGELVWCT-(βA)(βA); reading uncertain)	+	0	+
10R: cellulose-bound 13-mer variant DCAWHLGELRWCT-(βA)(βA) (DCAWHLGELRWCT-{βAla-βAla-cellulose}; disulfide 2-12 (inferred); reading uncertain; also: printed as DCAWHLGELRWCT-(βA)(βA))	0	0	0
09Q: cellulose-bound 13-mer variant DCAWHLGEQVWCT-(βA)(βA) (DCAWHLGEQVWCT-{βAla-βAla-cellulose}; disulfide 2-12 (inferred); reading uncertain; also: printed as DCAWHLGEQVWCT-(βA)(βA))	0	0	+
08D: cellulose-bound 13-mer variant DCAWHLGDLVWCT-(βA)(βA) (DCAWHLGDLVWCT-{βAla-βAla-cellulose}; disulfide 2-12 (inferred); not fully specified (N-terminus); printed as DCAWHLGDLVWCT-(βA)(βA); reading uncertain)	+	0	+
12G: cellulose-bound 13-mer variant DCAWHLGELVWGT-(βA)(βA) (DCAWHLGELVWGT-{βAla-βAla-cellulose}; not fully specified; printed as DCAWHLGELVWGT-(βA)(βA); reading uncertain)	0	0	0
07M: cellulose-bound 13-mer variant DCAWHLMELVWCT-(βA)(βA) (DCAWHLMELVWCT-{βAla-βAla-cellulose}; disulfide 2-12 (inferred); not fully specified (N-terminus); printed as DCAWHLMELVWCT-(βA)(βA); reading uncertain)	0	0	0
02I: cellulose-bound 13-mer variant DIAWHLGELVWCT-(βA)(βA) (DIAWHLGELVWCT[βAla][βAla]; not fully specified; printed as DIAWHLGELVWCT-(βA)(βA); also: cellulose-bound)	0	0	0
07N: cellulose-bound 13-mer variant DCAWHLNELVWCT-(βA)(βA) (DCAWHLNELVWCT-{βAla-βAla-cellulose}; disulfide 2-12 (inferred); not fully specified (N-terminus); printed as DCAWHLNELVWCT-(βA)(βA); reading uncertain)	0	0	0
03C: cellulose-bound 13-mer variant DCCWHLGELVWCT-(βA)(βA) (DCCWHLGELVWCT-{βAla-βAla-cellulose}; disulfide (positions not given here); not fully specified; printed as DCCWHLGELVWCT-(βA)(βA); reading uncertain)	0	0	0
06A: cellulose-bound 13-mer variant DCAWHAGELVWCT-(βA)(βA) (DCAWHAGELVWCT[βAla][βAla]; disulfide 2-12 (inferred); not fully specified (N-terminus); printed as DCAWHAGELVWCT-(βA)(βA); also: cellulose-bound)	0	0	+
02W: cellulose-bound 13-mer variant DWAWHLGELVWCT-(βA)(βA) (DWAWHLGELVWCT[βAla][βAla]; not fully specified; printed as DWAWHLGELVWCT-(βA)(βA); also: cellulose-bound)	0	0	0
